Laboratory results from patent publication US20210355115A1, “ISOXAZOLE CARBOXAMIDE COMPOUNDS AND USES THEREOF” (Novartis AG, priority 2018, published 2021).

Key:
[1] = test system: mouse cochlea explants with hair cell damage; assay: Ex vivo hair cell induction assay using 6-day-postnatal mouse cochlea explants with hair cell damage; assay type: cell-based; details: 10 μM; neomycin-damaged P6 Atoh1-GFP mouse cochlea explants; 8 days treatment; Mean ± SD; DMSO control 0
Method: Ex Vivo Hair Cell Induction Assay Using 6-Day-Postnatal Mouse Cochlea Explants with Hair Cell Damage
P6, postnatal 6 days, Atoh1-GFP mice, the same mouse strain used for Atoh1 induction assay described before, were used in this assay. The otic capsule was exposed and the cochleae were micro-dissected. The basilar membrane was separated from the organ of Corti and in vitro cultured in serum free medium (culture medium: DMEM/F12+1% N2+2% B27+5 μg/ml ampicillin) at 37° C. under a standard gas atmosphere of humidified air/5% CO2. Inner ear hair cells were damaged by 1 mM Neomycin treatment for […] After the neomycin treatment, explants were cultured in blank culture medium for 7 days before the treatment of selected compounds.
For compound administration, the cochlea explants were treated with 3 to 10 μM compound of the present disclosure, with DMSO as the negative control for 8 days with once compound/medium change. After 8 days treatment, the tested compound was removed. The explants were cultured in blank medium for additional 4 days. The cochlea explant cultures then were fixed with 4% w/v formalin and processed for Myo7a immunofluorescence (Myo7a is a specific marker for sensory hair cell) using the rabbit anti-Myo7a antibody (Protus Biosci #25-6790, 1:250 diluted in PBS containing 3% BSA). Rhodamine labeled Goat-anti-rabbit IgG (Molecular Prob. #R6394, 1:1000 diluted in PBS containing 3% BSA) was used as the secondary antibody to visualize the Myo7a positive cells. The images were collected and analyzed using the EVOS image system (Thermo-Fisher Scientific). […] The hair cell identity of the ectopically formed cells was confirmed by staining the cells with multiple hair cell markers.
The efficacy of hair cells induction in this assay is represented by the responsive length percentage of Atoh1 and Myo7a double positive cells in the damaged whole explants after compound treatment. The responsive length percentage was calculated according to the equation of ((the explant length with Atoh1 and Myo7a double positive cells/the full length of cochlea explant)*100%). Note the value of DMSO control is 0% due to total damage of hair cells, and any responsive length percentage more than 20% is considered as significant hair cell induction.

Atoh1 = Atoh1 induction assay in mouse cerebellar neural precursor cells (Atoh1-GFP reporter assay); assay type: cell-based; details: maximum fold difference over DMSO control (=1), cerebellar NPCs from Atoh1-GFP mice, 10 doses 50 μM to 200 nM, 72 hours treatment, read-out: Fold Difference (ratio of Atoh1-GFP average intensity_FC to DMSO_Max)
Method: Atoh1 induction assay was conducted with in vitro cultured cerebellar neural precursor cells isolated from neonatal transgenic Atoh1-GFP mice. Atoh1 expression is mainly regulated by the enhancer, and the nuclear GFP was driven by the cloned enhancer sequence at 3′ of Atoh1 which had high conservation among mammalians So Atoh1 induction could be reflected by GFP activation in cerebellar neural precursor cells (Helms et al., Development 2000; 127: 1185-1196; Lumpkin et al., Gene Expression Patterns 2003; 3: 389-395). Postnatal 3 days pups were dissected for cerebellum tissue isolation. The cerebellum tissue was cut into small pieces, and dissociated with 0.05% Trypsin for about 10 minutes at 37° C., and then filtered with a 70 uM cell strainer. The cells were cultured as neuropsheres for the first 2 days in ultra-low attachment dish/well-plate with DMEM/F12+1% N2 &2% B27 with 1% P/S, 20 ng/ml rhFGF2 and 20 ng/ml rhEGF (R&D Systems). Then the spheres were plated to the matrigel (1:30 diluted in DMEM/F12)-coated tissue culture dish for monolayer culture. After 4.5-5.5 days culture in vitro (DIV), cells were dissociated with 0.05% trypsin into single cells, and frozen after cell number calculation.
The cerebellar neural precursor cells (NPCs) were re-thawed from stock and cultured for another 2 days before used for Atoh1 induction assay. On the first day of assay, NPCs were seeded into matrigel-coated 384 well plates (Black view-plate, PE) at 2500 cells/well. After over-night culture, the NPCs were treated with representative compounds of the present disclosure with 1:2 serial dilutions for 10 doses, from 50 μM to 200 nM, with DMSO as negative control. After 72 hours treatment without medium change, the cells were fixed with 4% formalin for staining Assay plates were stained with GFP antibody (Abcam, #13970, 1:1000) to amplify endogenous GFP signal and then read by Cellomics. […] Table 1 Atoh1 activation by treatment of Compounds of the present disclosure (Atoh1-GFP reporter assay in cerebellar NPCs)

| Compound | Atoh1-GFP/Myo7a cell numbers in 25%-50% length from Apex [1] | Response ratio (Response length/full length %) [1] [%] | maximal fold induction (Atoh1) |
| --- | --- | --- | --- |
| NC(=O)CN1CCN(CCCCCNC(=O)c2cc(-c3cccs3)on2)CC1 [Example 18, N-(5-(4-(2-amino-2-oxoethyl)piperazin-1-yl)pentyl)-5-(thiophen-2-yl)isoxazole-3-carboxamide] | 16.1 ± 3.0 | 59.4 ± 5.3 | 20.4 |
| NC(=O)[C@@H](O)CN1CCN(CCCCCNC(=O)c2cc(-c3cccs3)on2)CC1 [Example 37 S, (S)—N-(5-(4-(3-amino-2-hydroxy-3-oxopropyl)piperazin-1-yl)pentyl)-5-(thiophen-2-yl)isoxazole-3-carboxamide] | 11.1 ± 3.0 | 50.1 ± 16.8 |  |
| NC(=O)C(O)CN1CCN(CCCCCNC(=O)c2cc(-c3cccs3)on2)CC1 (stereo not drawn) [Example 37, N-(5-(4-(3-amino-2-hydroxy-3-oxopropyl)piperazin-1-yl)pentyl)-5-(thiophen-2-yl)isoxazole-3-carboxamide] | 16.3 ± 4.0 | 56.9 ± 8.8 | 27.6 |
| NC(=O)[C@@H]1CN(CCCCCNC(=O)c2cc(-c3cccs3)on2)CC[C@H]1O [35 trans] | 14.2 ± 1.8 | 63.9 ± 5.8 | 24.8 |
| NC(=O)C1CN(CCCCCNC(=O)c2cc(-c3cccs3)on2)CC1O (single isomer, unassigned) [33 peak 1] | 19.4 ± 2.7 | 62.1 ± 11.8 | 34.8 |
| NC(=O)[C@H](O)CN1CCN(CCCCCNC(=O)c2cc(-c3cccs3)on2)CC1 [Example 37 R, (R)—N-(5-(4-(3-amino-2-hydroxy-3-oxopropyl)piperazin-1-yl)pentyl)-5-(thiophen-2-yl)isoxazole-3-carboxamide] | 13.6 ± 4.0 | 42.2 ± 7.7 |  |
| NC(=O)[C@H](O)CN1CCN(CCCCCNC(=O)c2cc(-c3cccs3)on2)CC1 [37 R] |  |  | 29.2 |
| NC(=O)C1CCN(CCCCCNC(=O)c2cc(-c3ccc(F)cc3)on2)CC1O (stereo not drawn) [Example 31, N-(5-(4-carbamoyl-3-hydroxypiperidin-1-yl)pentyl)-5-(4-fluorophenyl)isoxazole-3-carboxamide] |  |  | 14.7 |
